Results: PubChem BioAssay AID1963981 (Molecular Pharmacology Branch, DTP, NCI, 2024)

Tested on: 354836-022-R-J1-PDC multicell spheroid viability
Assay: Anticancer human tumor 354836-022-R-J1-PDC patient-derived head and neck squamous cell carcinoma cell line growth inhibition [PI3K]
Settings: curve of first compound; second compound 0.00316 µM
Outline: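 Combination activity was assessed by viability in multicellular tumor spheroids carrying HUVEC and MSC components. Agents were tested with PI3K inhibitors from a Cmax-based top dose (or 10 microM) downward in half-log increments.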
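Also: spheroids exposed to agents for seven days before the viability read.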

Row | IC50 | SMILES
1 | > 10 µM | C#Cc1c(F)ccc2cc(O)cc(-c3ncc4c(N5CC6CCC(C5)N6)nc(OCC56CCCN5CC(F)C6)nc4c3F)c12 (stereo unspecified) + CC(Nc1ccc2c(c1)OCCn1cc(N3C(=O)OCC3C(F)F)nc1-2)C(N)=O
2 | 0.305 µM | CC(C)NCC(C(=O)N1CCN(c2ncnc3c2C(C)CC3O)CC1)c1ccc(Cl)cc1 (stereo unspecified) + COc1c(OCCCN2CCOCC2)ccc2c3n(c(=NC(=O)c4cnc(N)nc4)nc12)CCN3

Same assay, conditions: curve of first compound; second compound 0.01 µM

Row | IC50 | SMILES
3 | > 10 µM | C#Cc1c(F)ccc2cc(O)cc(-c3ncc4c(N5CC6CCC(C5)N6)nc(OCC56CCCN5CC(F)C6)nc4c3F)c12 (stereo unspecified) + CC(Nc1ccc2c(c1)OCCn1cc(N3C(=O)OCC3C(F)F)nc1-2)C(N)=O
4 | 0.227 µM | CC(C)NCC(C(=O)N1CCN(c2ncnc3c2C(C)CC3O)CC1)c1ccc(Cl)cc1 (stereo unspecified) + COc1c(OCCCN2CCOCC2)ccc2c3n(c(=NC(=O)c4cnc(N)nc4)nc12)CCN3

Same assay, conditions: curve of first compound; second compound 0.0316 µM

Row | SMILES | IC50
5 | C#Cc1c(F)ccc2cc(O)cc(-c3ncc4c(N5CC6CCC(C5)N6)nc(OCC56CCCN5CC(F)C6)nc4c3F)c12 (stereo unspecified) + CC(Nc1ccc2c(c1)OCCn1cc(N3C(=O)OCC3C(F)F)nc1-2)C(N)=O | > 10 µM
6 | CC(C)NCC(C(=O)N1CCN(c2ncnc3c2C(C)CC3O)CC1)c1ccc(Cl)cc1 (stereo unspecified) + COc1c(OCCCN2CCOCC2)ccc2c3n(c(=NC(=O)c4cnc(N)nc4)nc12)CCN3 | 0.119 µM

More lines, now with the values ahead:

Row | IC50 | SMILES
7 | > 10 µM | C=CC(=O)N1CCN(c2nc(=O)n(-c3c(C)ccnc3C(C)C)c3nc(-c4c(O)cccc4F)c(F)cc23)C(C)C1 (stereo unspecified) + CC(Nc1ncnc2nc[nH]c12)c1cc2cccc(Cl)c2c(=O)n1-c1ccccc1
8 | 0.917 µM | CCN1CCN(Cc2ccc(Nc3ncc(F)c(-c4cc(F)c5nc(C)n(C(C)C)c5c4)n3)nc2)CC1 + CC(Nc1ncnc2nc[nH]c12)c1cc2cccc(Cl)c2c(=O)n1-c1ccccc1
9 | < 0.0316 µM | CC1(C)CCC(Nc2ncc(C(F)(F)F)c(-c3c[nH]c4c(P(C)(C)=O)c(C#N)ccc34)n2)CN1 (stereo unspecified) + Cc1nc(NC(=O)N2CCCC2C(N)=O)sc1-c1ccnc(C(C)(C)C(F)(F)F)c1

Same assay, conditions: curve of first compound; second compound 0.1 µM

Row | SMILES | IC50
10 | C#Cc1c(F)ccc2cc(O)cc(-c3ncc4c(N5CC6CCC(C5)N6)nc(OCC56CCCN5CC(F)C6)nc4c3F)c12 (stereo unspecified) + CC(Nc1ccc2c(c1)OCCn1cc(N3C(=O)OCC3C(F)F)nc1-2)C(N)=O | > 10 µM
11 | CC(C)NCC(C(=O)N1CCN(c2ncnc3c2C(C)CC3O)CC1)c1ccc(Cl)cc1 (stereo unspecified) + COc1c(OCCCN2CCOCC2)ccc2c3n(c(=NC(=O)c4cnc(N)nc4)nc12)CCN3 | < 0.0316 µM

The next lines start with the values.

Row | IC50 | SMILES
12 | > 10 µM | C=CC(=O)N1CCN(c2nc(=O)n(-c3c(C)ccnc3C(C)C)c3nc(-c4c(O)cccc4F)c(F)cc23)C(C)C1 (stereo unspecified) + CC(Nc1ncnc2nc[nH]c12)c1cc2cccc(Cl)c2c(=O)n1-c1ccccc1
13 | > 1 µM | CCN1CCN(Cc2ccc(Nc3ncc(F)c(-c4cc(F)c5nc(C)n(C(C)C)c5c4)n3)nc2)CC1 + CC(Nc1ncnc2nc[nH]c12)c1cc2cccc(Cl)c2c(=O)n1-c1ccccc1
14 | < 0.0316 µM | CC1(C)CCC(Nc2ncc(C(F)(F)F)c(-c3c[nH]c4c(P(C)(C)=O)c(C#N)ccc34)n2)CN1 (stereo unspecified) + Cc1nc(NC(=O)N2CCCC2C(N)=O)sc1-c1ccnc(C(C)(C)C(F)(F)F)c1

Same assay, conditions: curve of first compound; second compound 0.316 µM

Row | SMILES | IC50
15 | C#Cc1c(F)ccc2cc(O)cc(-c3ncc4c(N5CC6CCC(C5)N6)nc(OCC56CCCN5CC(F)C6)nc4c3F)c12 (stereo unspecified) + CC(Nc1ccc2c(c1)OCCn1cc(N3C(=O)OCC3C(F)F)nc1-2)C(N)=O | > 10 µM
16 | CC(C)NCC(C(=O)N1CCN(c2ncnc3c2C(C)CC3O)CC1)c1ccc(Cl)cc1 (stereo unspecified) + COc1c(OCCCN2CCOCC2)ccc2c3n(c(=NC(=O)c4cnc(N)nc4)nc12)CCN3 | < 0.0316 µM

Other lines, results leading:

Row | IC50 | SMILES
17 | > 10 µM | C=CC(=O)N1CCN(c2nc(=O)n(-c3c(C)ccnc3C(C)C)c3nc(-c4c(O)cccc4F)c(F)cc23)C(C)C1 (stereo unspecified) + CC(Nc1ncnc2nc[nH]c12)c1cc2cccc(Cl)c2c(=O)n1-c1ccccc1
18 | > 1 µM | CCN1CCN(Cc2ccc(Nc3ncc(F)c(-c4cc(F)c5nc(C)n(C(C)C)c5c4)n3)nc2)CC1 + CC(Nc1ncnc2nc[nH]c12)c1cc2cccc(Cl)c2c(=O)n1-c1ccccc1
19 | < 0.0316 µM | CC1(C)CCC(Nc2ncc(C(F)(F)F)c(-c3c[nH]c4c(P(C)(C)=O)c(C#N)ccc34)n2)CN1 (stereo unspecified) + Cc1nc(NC(=O)N2CCCC2C(N)=O)sc1-c1ccnc(C(C)(C)C(F)(F)F)c1

Same assay, conditions: curve of first compound; second compound 1 µM

Row | SMILES | IC50
20 | C#Cc1c(F)ccc2cc(O)cc(-c3ncc4c(N5CC6CCC(C5)N6)nc(OCC56CCCN5CC(F)C6)nc4c3F)c12 (stereo unspecified) + CC(Nc1ccc2c(c1)OCCn1cc(N3C(=O)OCC3C(F)F)nc1-2)C(N)=O | > 10 µM
21 | CC(C)NCC(C(=O)N1CCN(c2ncnc3c2C(C)CC3O)CC1)c1ccc(Cl)cc1 (stereo unspecified) + COc1c(OCCCN2CCOCC2)ccc2c3n(c(=NC(=O)c4cnc(N)nc4)nc12)CCN3 | < 0.0316 µM

The next lines start with the values.

Row | IC50 | SMILES
22 | > 10 µM | C=CC(=O)N1CCN(c2nc(=O)n(-c3c(C)ccnc3C(C)C)c3nc(-c4c(O)cccc4F)c(F)cc23)C(C)C1 (stereo unspecified) + CC(Nc1ncnc2nc[nH]c12)c1cc2cccc(Cl)c2c(=O)n1-c1ccccc1
23 | 0.954 µM | CCN1CCN(Cc2ccc(Nc3ncc(F)c(-c4cc(F)c5nc(C)n(C(C)C)c5c4)n3)nc2)CC1 + CC(Nc1ncnc2nc[nH]c12)c1cc2cccc(Cl)c2c(=O)n1-c1ccccc1
24 | < 0.0316 µM | CC1(C)CCC(Nc2ncc(C(F)(F)F)c(-c3c[nH]c4c(P(C)(C)=O)c(C#N)ccc34)n2)CN1 (stereo unspecified) + Cc1nc(NC(=O)N2CCCC2C(N)=O)sc1-c1ccnc(C(C)(C)C(F)(F)F)c1

Same assay, conditions: curve of first compound; second compound 3.16 µM

Row | IC50 | SMILES
25 | > 10 µM | C=CC(=O)N1CCN(c2nc(=O)n(-c3c(C)ccnc3C(C)C)c3nc(-c4c(O)cccc4F)c(F)cc23)C(C)C1 (stereo unspecified) + CC(Nc1ncnc2nc[nH]c12)c1cc2cccc(Cl)c2c(=O)n1-c1ccccc1
26 | 0.788 µM | CCN1CCN(Cc2ccc(Nc3ncc(F)c(-c4cc(F)c5nc(C)n(C(C)C)c5c4)n3)nc2)CC1 + CC(Nc1ncnc2nc[nH]c12)c1cc2cccc(Cl)c2c(=O)n1-c1ccccc1
